# In ChEMBL document CHEMBL1250449, “Aminoglycoside activity observed on single pre-translocation ribosome complexes” (Nat Chem Biol, 2010):
# pEC50: −log10 of the molar value. Activity calls are given as the source filed them. The calls are words filed in the database; no cut-off is given here. Numbered stars: 1 amine (or outer) side, 2 acyl side, 3 side chain; on linkers, the order of the positions; unused ones are H or OH. Bridge positions count the residues as written; N and C are the ends. Square brackets hold non-standard residues; d marks the D form. Peptide text beside a SMILES is read from it. * marks the point of attachment. X1 = NC1=N[C@@H]([C@H](N[*:1])C(=O)[*:2])C[C@H](O)N1; ΔAla(Z-3-ureido) = NC(=O)N/C=C(\N)C(=O)O; β3hOrn = NCCC[C@H](N)CC(=O)*; Dap = NC[C@H](N)C(=O)O
# Key:
# Nucleic Acid [1] = test: Binding affinity to Escherichia coli 16S rRNA helix 44 assessed as tRNA translocation rate; type: nucleic-acid assay; settings: MRE600
# Nucleic Acid [2] = test: Binding affinity to Escherichia coli 16S rRNA helix 44 assessed as classical-state occupancy by tRNA; type: nucleic-acid assay; parameters: concentration or dose not given beside the values; settings: MRE600
# Nucleic Acid [3] = test: Binding affinity to Escherichia coli 23S rRNA assessed as increase in classical-state occupancy by tRNA at 20 uM by smFRET; type: nucleic-acid assay; settings: MRE600
# Nucleic Acid [4] = test: Binding affinity to Escherichia coli 23S rRNA G2553C mutant assessed as increase in classical-state occupancy by tRNA at 20 uM by smFRET; type: nucleic-acid assay; settings: MRE600
# Nucleic Acid [5] = test: Binding affinity to Escherichia coli 16S rRNA helix 44 assessed as increase in classical-state occupancy by tRNA at 100 nM by smFRET; type: nucleic-acid assay; settings: MRE600
# Nucleic Acid [6] = test: Binding affinity to Escherichia coli 16S rRNA helix 44 assessed as tRNA translocation rate at 100 nM (Rvb= 1.57+/-0.05 /sec); type: nucleic-acid assay; settings: MRE600
# Nucleic Acid [7] = test: Binding affinity to Escherichia coli 16S rRNA helix 44 assessed as reduction in rate of tRNA translocation at 100 nM; type: nucleic-acid assay; settings: MRE600
# Nucleic Acid [8] = test: Binding affinity to Escherichia coli 16S rRNA helix 44 assessed as decrease in classical-state occupancy by tRNA at 20 uM by smFRET; type: nucleic-acid assay; parameters: scale not given: the % may be the effect or the level left; settings: MRE600
# Nucleic Acid [9] = test: Binding affinity to Escherichia coli 16S rRNA helix 44 assessed as classical-state occupancy by tRNA at 100 nM (Rvb= 62.4+/-1.1%); type: nucleic-acid assay; settings: MRE600
# Nucleic Acid [10] = test: Binding affinity to Escherichia coli 23S rRNA H69 assessed as classical-state occupancy by tRNA at 20 uM (Rvb= 62.4+/-1.1%); type: nucleic-acid assay; settings: MRE600
# Nucleic Acid [11] = test: Binding affinity to Escherichia coli 23S rRNA assessed as decrease in classical-state occupancy by tRNA at 20 uM by smFRET; type: nucleic-acid assay; parameters: scale not given: the % may be the effect or the level left; settings: MRE600
# Nucleic Acid [12] = test: Binding affinity to Escherichia coli 23S rRNA H69 assessed as tRNA translocation rate at 20 uM (Rvb= 1.57+/-0.05 /sec); type: nucleic-acid assay; settings: MRE600
# Nucleic Acid [13] = test: Binding affinity to Escherichia coli 16S rRNA helix 44 assessed as reduction in rate of tRNA exit from classical state at 100 nM; type: nucleic-acid assay; settings: MRE600
# [14] = biological target: T1, Bacterial 70S ribosome (Bacteria) (UniProt P0A7V0+P60723+P0AG67+P0A7R5+P0A7R9+P0A7S3+P0A7S9+P0AG59+P0ADZ4+P0A7T3+P0AG63+P0A7T7+P0A7U3+P0A7U7+P68679+P0A7V3+P0A7V8+P0A7W1+P02358+P02359+P0A7W7+P0A7X3+P0A7J3+P0A7J7+P0AA10+P0ADY3+P02413+P0ADY7+P0AG44+P0C018+P0A7K6+P0A7L0+P0A7L3+P0AG48+P61175+P0ADZ0+P60624+P68919+P0A7L8+P0A7M2+P0A7M6+P60422+P0AG51+P0A7N1+P0A7M9+P0A7N4+P0A7N9+P0A7P5+P0A7Q1+Q2EEQ2+P0A7Q6+P60438+P62399+P0AG55+P0A7K2); test: Binding affinity to Escherichia coli ribosomal pre-translocation complex assessed as decreased rate of EF-G-catalyzed translocation by tRNA at <2 uM; settings: MRE600
# Nucleic Acid [15] = test: Binding affinity to Escherichia coli ribosomal pre-translocation complex assessed as tRNA translocation rate at 200 uM (Rvb= 1.57+/-0.05 /sec); type: nucleic-acid assay; settings: MRE600
# [16] = biological target: T1, Bacterial 70S ribosome (Bacteria); test: Binding affinity to Escherichia coli ribosomal pre-translocation complex assessed as stabilization of hybrid-state occupancy by tRNA at 2 uM; settings: MRE600
# [17] = biological target: T1, Bacterial 70S ribosome (Bacteria); test: Binding affinity to Escherichia coli ribosomal pre-translocation complex assessed as decreased rate of EF-G-catalyzed translocation by tRNA at 100 nM; settings: MRE600
# [18] = biological target: T1, Bacterial 70S ribosome (Bacteria); test: Binding affinity to Escherichia coli ribosomal pre-translocation complex assessed as stabilization of hybrid-state occupancy by tRNA at 100 nM; settings: MRE600
# [19] = biological target: T1, Bacterial 70S ribosome (Bacteria); test: Binding affinity to Escherichia coli ribosomal pre-translocation complex assessed as stabilization of classical-state occupancy by tRNA at 200 uM; settings: MRE600
# [20] = biological target: T1, Bacterial 70S ribosome (Bacteria); test: Binding affinity to Escherichia coli ribosomal pre-translocation complex assessed as decreased rate of EF-G-catalyzed translocation fraction by tRNA at 100 nM; settings: MRE600
# Nucleic Acid [21] = test: Binding affinity to Escherichia coli ribosomal pre-translocation complex assessed as classical-state occupancy by tRNA at 200 uM (Rvb= 62.4+/-1.1%); type: nucleic-acid assay; settings: MRE600
# [22] = biological target: T1, Bacterial 70S ribosome (Bacteria); test: Binding affinity to Escherichia coli ribosomal pre-translocation complex assessed as stabilization of hybrid-state occupancy by tRNA at <2 uM; settings: MRE600
# Nucleic Acid [23] = test: Binding affinity to Escherichia coli 16S A1408G rRNA assessed as increase in classical-state occupancy by tRNA by smFRET; type: nucleic-acid assay; settings: MRE600
# Nucleic Acid [24] = test: Binding affinity to Escherichia coli 16S rRNA helix 44 assessed as stabilization of classical state occupancy by tRNA by smFRET; type: nucleic-acid assay, MRE600
# Escherichia coli [25] = test: Stabilization of classical-state occupancy by tRNA in ribosomal pre-translocation complex in Escherichia coli MRE600 expressing 16S A1408G and 23S G2553C rRNA mutant by smFRET; type: functional
# Nucleic Acid [26] = test: Binding affinity to Escherichia coli 23S rRNA G2553C mutant assessed as increase in classical-state occupancy by tRNA by smFRET; type: nucleic-acid assay; settings: MRE600
# Nucleic Acid [27] = test: Binding affinity to Escherichia coli 16S rRNA helix 44 assessed as increase in classical-state occupancy by tRNA at >=20 uM by smFRET; type: nucleic-acid assay; settings: MRE600
# Nucleic Acid [28] = test: Binding affinity to Escherichia coli 16S rRNA helix 44 assessed as increase in classical-state occupancy by tRNA at 20 nM to 200 uM by smFRET; type: nucleic-acid assay; settings: MRE600
# Nucleic Acid [29] = test: Binding affinity to Escherichia coli 23S rRNA assessed as stabilization of classical state occupancy by tRNA by smFRET; type: nucleic-acid assay, MRE600
# Nucleic Acid [30] = test: Binding affinity to Escherichia coli 16S rRNA helix 44 assessed as increase in classical-state occupancy by tRNA by smFRET; type: nucleic-acid assay; settings: MRE600, TDE = time-dependent effect
# Nucleic Acid [31] = test: Binding affinity to Escherichia coli 23S rRNA H69 assessed as increase in classical-state occupancy by tRNA by […]; type: nucleic-acid assay; settings: MRE600
# Escherichia coli [32] = test: Increase in hybrid-state occupancy by tRNA in ribosomal pre-translocation complex in Escherichia coli MRE600 by smFRET method in presence of 10 uM neomycin; type: functional
# Escherichia coli [33] = test: Increase in classical-state occupancy by tRNA in ribosomal pre-translocation complex in Escherichia coli MRE600 by smFRET method in presence of 200 nM neomycin; type: functional, organism-based
# Nucleic Acid [34] = test: Binding affinity to Escherichia coli 16S rRNA helix 44 assessed as increase in classical-state occupancy by tRNA by […]; type: nucleic-acid assay, MRE600
# Escherichia coli [35] = test: Increase in hybrid-state occupancy by tRNA in ribosomal pre-translocation complex in Escherichia coli MRE600 by smFRET method in presence of 20 uM neomycin; type: functional, organism-based
compound,measurement,setting,value
CN[C@@H]1[C@@H](O)[C@@H](O[C@@H]2[C@@H](O)[C@H](O[C@H]3O[C@H]([C@@H](C)N)CC[C@H]3N)[C@@H](N)C[C@H]2N)OC[C@]1(C)O,Activity,Nucleic Acid [1],0.42 s⁻¹
same,Activity,Nucleic Acid [2],67.2%
same,Activity,Nucleic Acid [3],5%
same,Activity,Nucleic Acid [4],18%
CN[C@@H]1[C@@H](O)[C@@H](O[C@@H]2[C@@H](O)[C@H](O[C@H]3O[C@H]([C@@H](C)NC)CC[C@H]3N)[C@@H](N)C[C@H]2N)OC[C@]1(C)O,Activity,Nucleic Acid [1],0.42 s⁻¹
same,Activity,Nucleic Acid [2],67.2%
same,Activity,Nucleic Acid [3],5%
same,Activity,Nucleic Acid [4],14%
NC[C@@H]1O[C@H](O[C@H]2[C@@H](O)[C@H](O[C@@H]3[C@@H](O)[C@H](N)C[C@H](N)[C@H]3O[C@H]3O[C@H](CN)[C@@H](O)[C@H](O)[C@H]3N)O[C@@H]2CO)[C@H](N)[C@@H](O)[C@@H]1O,Activity,Nucleic Acid [5],6%
same,Activity,Nucleic Acid [6],0.31 s⁻¹
same,fold change (FC),Nucleic Acid [7],3
same,Activity,Nucleic Acid [8],10%
same,Activity,Nucleic Acid [9],70.3%
same,Activity,Nucleic Acid [10],52%
same,Activity,Nucleic Acid [11],10%
same,Activity,Nucleic Acid [12],0.06 s⁻¹
same,fold change (FC),Nucleic Acid [13],1.5
NC[C@@H]1O[C@H](O[C@H]2[C@@H](O)[C@H](O[C@@H]3[C@@H](O)[C@H](N)C[C@H](N)[C@H]3O[C@H]3O[C@H](CO)[C@@H](O)[C@H](O)[C@H]3N)O[C@@H]2CO)[C@H](N)[C@@H](O)[C@@H]1O,Activity,Nucleic Acid [1],0.51 s⁻¹
same,Activity,Nucleic Acid [2],63.9%
same,Activity,Nucleic Acid [3],2%
same,Activity,Nucleic Acid [4],12%
NCCC[C@H](N)CC(=O)N[C@H]1CNC(=O)[C@H]([C@H]2C[C@H](O)NC(N)=N2)NC(=O)/C(=C/NC(N)=O)NC(=O)[C@H](CO)NC(=O)[C@H](CO)NC1=O (β3hOrn-[Dap]SS[ΔAla(Z-3-ureido)][X1]; lactam 1-C),Activity,[14],Active
same,Activity,Nucleic Acid [15],0.04 s⁻¹
same,Activity,[16],Active
same,fold change (FC),[17],1.5
same,Activity,[18],10%
same,Activity,[19],Active
same,fold change (FC),[20],2
same,Activity,Nucleic Acid [21],46.8%
same,Activity,[22],Active
NC[C@H]1O[C@H](O[C@H]2[C@H](O)[C@@H](O[C@H]3O[C@H](CO)[C@@H](O)[C@H](N)[C@H]3O)[C@H](N)C[C@@H]2N)[C@H](N)[C@@H](O)[C@@H]1O [BEKANAMYCIN],Activity,Nucleic Acid [1],0.27 s⁻¹
same,Activity,Nucleic Acid [2],69.6%
same,Activity,Nucleic Acid [23],inactive
same,pEC50,Nucleic Acid [24],6.52
same,Activity,Nucleic Acid [3],8%
same,Activity,Nucleic Acid [4],25%
same,Activity,Escherichia coli [25],10%
same,Activity,Nucleic Acid [26],25%
same,Activity,Nucleic Acid [27],Active
same,Activity,Nucleic Acid [28],Dose-dependent effect
same,pEC50,Nucleic Acid [29],6.52
same,Activity,Nucleic Acid [30],tde
NC[C@@H]1O[C@@H](O[C@H]2[C@H](O)[C@@H](O[C@H]3O[C@H](CO)[C@@H](O)[C@H](N)[C@H]3O)[C@H](N)C[C@@H]2N)[C@@H](O)[C@H](O)[C@H]1O [KANAMYCIN A],Activity,Nucleic Acid [1],0.27 s⁻¹
same,Activity,Nucleic Acid [2],69.6%
same,Activity,Nucleic Acid [23],inactive
same,pEC50,Nucleic Acid [24],6.52
same,Activity,Nucleic Acid [3],8%
same,Activity,Nucleic Acid [4],25%
same,Activity,Escherichia coli [25],10%
same,Activity,Nucleic Acid [26],25%
same,Activity,Nucleic Acid [27],Active
same,Activity,Nucleic Acid [28],Dose-dependent effect
same,pEC50,Nucleic Acid [29],6.52
same,Activity,Nucleic Acid [30],tde
COc1ccc(C[C@H](N)C(=O)N[C@H]2[C@@H](O)[C@H](n3cnc4c(N(C)C)ncnc43)O[C@@H]2CO)cc1 [PUROMYCIN],Activity,Nucleic Acid [31],> 1 µM
same,Activity,Escherichia coli [32],25%
same,Activity,Escherichia coli [33],Active
same,pEC50,Nucleic Acid [34],7.00
same,Activity,Escherichia coli [35],Active
